Assay results taken from ChEMBL document CHEMBL1201862, “PubChem BioAssay data set” (2004).
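1) Cells in 96-well plates. 2) Compound, 48 h, 5 concentrations. 3) Linear interpolation between surrounding doses. 4) Unreached endpoint = highest concentration. At the GI50, growth is halved.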 Activity calls are given as the source filed them. No stated cut-off is given here; in the data, active = GI50 up to about 1.1 µM and inactive = higher.

What was measured:
Test in all cases: growth of human tumour cells (NCI), 48 h
[1] = system: 786-0
[2] = system: A498
[3] = system: A549
[4] = system: ACHN
[5] = system: BT-549
[6] = system: CAKI-1
[7] = system: CCRF-CEM
[8] = system: COLO 205
[9] = system: DU-145
[10] = system: HCC 2998
[11] = system: HCT-116
[12] = system: HCT-15
[13] = system: HL-60
[14] = system: HOP-62
[15] = system: HOP-92
[16] = system: HT-29
[17] = system: Hs-578T
[18] = system: IGROV-1
[19] = system: K562
[20] = system: KM12
[21] = system: LOX IMVI
[22] = system: M14
[23] = system: MCF7
[24] = system: MDA-MB-435
[25] = system: MDA-N
[26] = system: MOLT-4
[27] = system: Malme-3M
[28] = system: NCI-H23
[29] = system: NCI-H460
[30] = system: NCI/ADR-RES
[31] = system: OVCAR-3
[32] = system: OVCAR-4
[33] = system: OVCAR-5
[34] = system: PC-3
[35] = system: RPMI-8226
[36] = system: RXF 393
[37] = system: SF-268
[38] = system: SF-295
[39] = system: SF-539
[40] = system: SK-MEL-28
[41] = system: SK-MEL-2
[42] = system: SK-MEL-5
[43] = system: SK-OV-3
[44] = system: SN12C
[45] = system: SNB-19
[46] = system: SNB-75
[47] = system: SR
[48] = system: SW-620
[49] = system: T47D
[50] = system: TK-10
[51] = system: U-251
[52] = system: UACC-257
[53] = system: UACC-62
[54] = system: UO-31
[55] = system: EKVX
[56] = system: MDA-MB-231
[57] = system: NCI-H226
[58] = system: NCI-H522
[59] = system: OVCAR-8

[N-]=[N+]=NC1=C(c2ccccc2)C(=O)c2cccc3cccc1c23
GI50 [1]: 15.2 µM (inactive) | GI50 [2]: 1.52 µM (inactive) | GI50 [3]: 11.9 µM (inactive) | GI50 [4]: 6.01 µM (inactive) | GI50 [5]: 8.17 µM (inactive) | GI50 [6]: 33.6 µM (inactive) | GI50 [7]: 4.85 µM (inactive) | GI50 [8]: > 100 µM (inactive) | GI50 [9]: 28.9 µM (inactive) | GI50 [10]: 11.4 µM (inactive) | GI50 [11]: 5.48 µM (inactive) | GI50 [12]: 17.8 µM | GI50 [13]: 16.6 µM (inactive) | GI50 [14]: 15.2 µM (inactive) | GI50 [15]: 17.7 µM (inactive) | GI50 [16]: 6.56 µM (inactive) | GI50 [17]: 10.1 µM (inactive) | GI50 [18]: 15 µM (inactive) | GI50 [19]: 7.13 µM (inactive) | GI50 [20]: 8.02 µM (inactive) | GI50 [21]: 14.4 µM (inactive) | GI50 [22]: 8.3 µM (inactive) | GI50 [23]: 26.9 µM (inactive) | GI50 [24]: 68.4 µM (inactive) | GI50 [25]: 12.2 µM (inactive) | GI50 [26]: 2.55 µM (inactive) | GI50 [27]: 18.8 µM (inactive) | GI50 [28]: 24.9 µM (inactive) | GI50 [29]: 5.79 µM (inactive) | GI50 [30]: 45.5 µM (inactive) | GI50 [31]: 16.4 µM (inactive) | GI50 [32]: 46.7 µM (inactive) | GI50 [33]: 48.5 µM (inactive) | GI50 [34]: 8.26 µM (inactive) | GI50 [35]: 7 µM (inactive) | GI50 [36]: 19.7 µM (inactive) | GI50 [37]: 22.3 µM (inactive) | GI50 [38]: 11.2 µM (inactive) | GI50 [39]: 16.1 µM (inactive) | GI50 [40]: 33.3 µM (inactive) | GI50 [41]: 65 µM (inactive) | GI50 [42]: 2.77 µM (inactive) | GI50 [43]: 25.8 µM (inactive) | GI50 [44]: 29.9 µM (inactive) | GI50 [45]: 38.9 µM (inactive) | GI50 [46]: 10.2 µM (inactive) | GI50 [47]: 11.4 µM (inactive) | GI50 [48]: 29.9 µM (inactive) | GI50 [49]: 5.12 µM (inactive) | GI50 [50]: 23.2 µM (inactive) | GI50 [51]: > 100 µM (inactive) | GI50 [52]: 12.9 µM (inactive) | GI50 [53]: 5.86 µM (inactive) | GI50 [54]: 26.1 µM (inactive)

CC1=NC2=Nc3nc(C)cc[n+]3CN2C=C1
GI50 [1]: 48.3 µM (inactive) | GI50 [2]: > 100 µM (inactive) | GI50 [3]: 79.3 µM (inactive) | GI50 [4]: > 100 µM (inactive) | GI50 [5]: 49.3 µM (inactive) | GI50 [6]: 0.144 µM (active) | GI50 [8]: 67.5 µM (inactive) | GI50 [9]: > 100 µM (inactive) | GI50 [55]: 30.7 µM (inactive) | GI50 [10]: 58.2 µM (inactive) | GI50 [11]: 38.9 µM (inactive) | GI50 [12]: 88.5 µM | GI50 [14]: 89.3 µM (inactive) | GI50 [15]: 95.7 µM (inactive) | GI50 [16]: 31.8 µM (inactive) | GI50 [17]: > 100 µM (inactive) | GI50 [18]: 39.9 µM (inactive) | GI50 [21]: 29.8 µM (inactive) | GI50 [22]: > 100 µM (inactive) | GI50 [23]: > 100 µM (inactive) | GI50 [56]: 54.7 µM (inactive) | GI50 [24]: 40 µM (inactive) | GI50 [27]: 49.5 µM (inactive) | GI50 [57]: > 100 µM (inactive) | GI50 [28]: > 100 µM (inactive) | GI50 [29]: 43.2 µM (inactive) | GI50 [58]: > 100 µM (inactive) | GI50 [30]: > 100 µM (inactive) | GI50 [31]: > 100 µM (inactive) | GI50 [32]: > 100 µM (inactive) | GI50 [33]: > 100 µM (inactive) | GI50 [59]: > 100 µM (inactive) | GI50 [34]: > 100 µM (inactive) | GI50 [35]: 19.1 µM (inactive) | GI50 [36]: > 100 µM (inactive) | GI50 [37]: > 100 µM (inactive) | GI50 [38]: 85.5 µM (inactive) | GI50 [39]: > 100 µM (inactive) | GI50 [40]: 53.1 µM (inactive) | GI50 [41]: > 100 µM (inactive) | GI50 [42]: 53.3 µM (inactive) | GI50 [43]: > 100 µM (inactive) | GI50 [44]: 92.5 µM (inactive) | GI50 [45]: > 100 µM (inactive) | GI50 [46]: > 100 µM (inactive) | GI50 [48]: > 100 µM (inactive) | GI50 [49]: 70 µM (inactive) | GI50 [50]: 88.3 µM (inactive) | GI50 [51]: > 100 µM (inactive) | GI50 [52]: > 100 µM (inactive) | GI50 [53]: 44.2 µM (inactive) | GI50 [54]: > 100 µM (inactive)
